# Test system: 292921-168-R-J2-PDC complex spheroid growth
# Assay: Anticancer human tumor 292921-168-R-J2-PDC patient-derived pancreatic carcinoma cell line growth inhibition [AhR]
# Conditions: for IC50: curve of first compound; for viability, T/C: stronger effect = lower value
# Outline: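 Agents were dosed in half-log steps down from roughly clinical Cmax, or from 10 microM where Cmax was unknown, alone and with AhR antagonists. Read-out: percent test/control growth of tumor spheroids containing HUVEC and MSC stromal cells.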
# [1] = second compound 0.1 µM, first compound 0.0316 µM
# [2] = second compound 0.1 µM, first compound 0.1 µM
# [3] = second compound 0.1 µM, first compound 0.316 µM
# [4] = second compound 0.1 µM, first compound 1 µM
# [5] = second compound 0.316 µM, first compound 0.0316 µM
# [6] = second compound 0.316 µM, first compound 0.1 µM
# [7] = second compound 0.316 µM, first compound 0.316 µM
# [8] = second compound 0.316 µM, first compound 1 µM
# [9] = second compound 1 µM, first compound 0.0316 µM
# [10] = second compound 1 µM, first compound 0.1 µM
# [11] = second compound 1 µM, first compound 0.316 µM
# [12] = second compound 1 µM, first compound 1 µM
# [13] = second compound 3.16 µM, first compound 0.0316 µM
# [14] = second compound 3.16 µM, first compound 0.1 µM
# [15] = second compound 3.16 µM, first compound 0.316 µM
# [16] = second compound 3.16 µM, first compound 1 µM
# [17] = second compound 10 µM, first compound 0.0316 µM
# [18] = second compound 10 µM, first compound 0.1 µM
# [19] = second compound 10 µM, first compound 0.316 µM
# [20] = second compound 10 µM, first compound 1 µM
# [21] = second compound 0.1 µM, first compound 3.16 µM
# [22] = second compound 0.1 µM, first compound 10 µM
# [23] = second compound 0.316 µM, first compound 3.16 µM
# [24] = second compound 0.316 µM, first compound 10 µM
# [25] = second compound 1 µM, first compound 3.16 µM
# [26] = second compound 1 µM, first compound 10 µM
# [27] = second compound 3.16 µM, first compound 3.16 µM
# [28] = second compound 3.16 µM, first compound 10 µM
# [29] = second compound 10 µM, first compound 3.16 µM
# [30] = second compound 10 µM, first compound 10 µM
# [31] = second compound 0.1 µM, first compound 0.00949 µM
# [32] = second compound 0.1 µM, first compound 0.03 µM
# [33] = second compound 0.1 µM, first compound 0.0949 µM
# [34] = second compound 0.1 µM, first compound 0.3 µM
# [35] = second compound 0.316 µM, first compound 0.00949 µM
# [36] = second compound 0.316 µM, first compound 0.03 µM
# [37] = second compound 0.316 µM, first compound 0.0949 µM
# [38] = second compound 0.316 µM, first compound 0.3 µM
# [39] = second compound 1 µM, first compound 0.00949 µM
# [40] = second compound 1 µM, first compound 0.03 µM
# [41] = second compound 1 µM, first compound 0.0949 µM
# [42] = second compound 1 µM, first compound 0.3 µM
# [43] = second compound 3.16 µM, first compound 0.00949 µM
# [44] = second compound 3.16 µM, first compound 0.03 µM
# [45] = second compound 3.16 µM, first compound 0.0949 µM
# [46] = second compound 3.16 µM, first compound 0.3 µM
# [47] = second compound 10 µM, first compound 0.00949 µM
# [48] = second compound 10 µM, first compound 0.03 µM
# [49] = second compound 10 µM, first compound 0.0949 µM
# [50] = second compound 10 µM, first compound 0.3 µM
# 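Also: spheroids exposed to compounds for seven days after three days of growth.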
smiles,measurement,setting,value
CC1COCCN1c1cc(-c2ccnn2C)c2ccnc(-c3ccn[nH]3)c2n1 (stereo not given) + CC(CO)NC(=O)c1cc(-c2ccc(Cl)cc2)nn(-c2cnn(C)c2)c1=O,IC50,second compound 0.1 µM,0.0433 µM
same,IC50,second compound 0.316 µM,0.0464 µM
same,IC50,second compound 1 µM,0.033 µM
same,IC50,second compound 3.16 µM,0.0279 µM
same,IC50,second compound 10 µM,0.0103 µM
same,"viability, T/C","second compound 0.1 µM, first compound 0.00316 µM",93.5%
same,"viability, T/C","second compound 0.1 µM, first compound 0.01 µM",91%
same,"viability, T/C",[1],56.1%
same,"viability, T/C",[2],31.4%
same,"viability, T/C",[3],22.7%
same,"viability, T/C",[4],19.7%
same,"viability, T/C","second compound 0.316 µM, first compound 0.00316 µM",96.8%
same,"viability, T/C","second compound 0.316 µM, first compound 0.01 µM",84.1%
same,"viability, T/C",[5],56.6%
same,"viability, T/C",[6],35.3%
same,"viability, T/C",[7],22%
same,"viability, T/C",[8],17.8%
same,"viability, T/C","second compound 1 µM, first compound 0.00316 µM",100%
same,"viability, T/C","second compound 1 µM, first compound 0.01 µM",90.8%
same,"viability, T/C",[9],49%
same,"viability, T/C",[10],29.1%
same,"viability, T/C",[11],21.5%
same,"viability, T/C",[12],17.3%
same,"viability, T/C","second compound 3.16 µM, first compound 0.00316 µM",86.6%
same,"viability, T/C","second compound 3.16 µM, first compound 0.01 µM",75.2%
same,"viability, T/C",[13],46.9%
same,"viability, T/C",[14],24.9%
same,"viability, T/C",[15],17.7%
same,"viability, T/C",[16],17.1%
same,"viability, T/C","second compound 10 µM, first compound 0.00316 µM",62.8%
same,"viability, T/C","second compound 10 µM, first compound 0.01 µM",51%
same,"viability, T/C",[17],26.8%
same,"viability, T/C",[18],19.7%
same,"viability, T/C",[19],15.3%
same,"viability, T/C",[20],15.8%
CC1COCCN1c1cc(C2(S(C)(=N)=O)CC2)nc(-c2ccnc3[nH]ccc23)n1 (stereo not given) + CC(CO)NC(=O)c1cc(-c2ccc(Cl)cc2)nn(-c2cnn(C)c2)c1=O,IC50,second compound 0.1 µM,3.2 µM
same,IC50,second compound 0.316 µM,3 µM
same,IC50,second compound 1 µM,3.62 µM
same,IC50,second compound 3.16 µM,2.94 µM
same,IC50,second compound 10 µM,1.74 µM
same,"viability, T/C",[1],106%
same,"viability, T/C",[2],114%
same,"viability, T/C",[3],105%
same,"viability, T/C",[4],82.9%
same,"viability, T/C",[21],51%
same,"viability, T/C",[22],34.4%
same,"viability, T/C",[5],107%
same,"viability, T/C",[6],104%
same,"viability, T/C",[7],105%
same,"viability, T/C",[8],87.3%
same,"viability, T/C",[23],48.4%
same,"viability, T/C",[24],31.9%
same,"viability, T/C",[9],114%
same,"viability, T/C",[10],107%
same,"viability, T/C",[11],99.5%
same,"viability, T/C",[12],89.4%
same,"viability, T/C",[25],50.8%
same,"viability, T/C",[26],31.2%
same,"viability, T/C",[13],102%
same,"viability, T/C",[14],88.1%
same,"viability, T/C",[15],94.9%
same,"viability, T/C",[16],84.3%
same,"viability, T/C",[27],47.7%
same,"viability, T/C",[28],28.4%
same,"viability, T/C",[17],78.7%
same,"viability, T/C",[18],74.2%
same,"viability, T/C",[19],80.8%
same,"viability, T/C",[20],63.9%
same,"viability, T/C",[29],34.7%
same,"viability, T/C",[30],25.4%
COc1ccc([C@@H](O)c2cc(-c3ncnc4cc(N5CCOCC5)ccc34)c(F)cc2Cl)nn1 + CC(CO)NC(=O)c1cc(-c2ccc(Cl)cc2)nn(-c2cnn(C)c2)c1=O,IC50,second compound 0.1 µM,1.81 µM
same,IC50,second compound 0.316 µM,1.82 µM
same,IC50,second compound 1 µM,1.91 µM
same,IC50,second compound 3.16 µM,1.32 µM
same,IC50,second compound 10 µM,1.06 µM
same,"viability, T/C",[1],94.5%
same,"viability, T/C",[2],97.8%
same,"viability, T/C",[3],86.6%
same,"viability, T/C",[4],59.1%
same,"viability, T/C",[21],41.9%
same,"viability, T/C",[22],25.1%
same,"viability, T/C",[5],101%
same,"viability, T/C",[6],95.1%
same,"viability, T/C",[7],87%
same,"viability, T/C",[8],60.5%
same,"viability, T/C",[23],39.9%
same,"viability, T/C",[24],24.7%
same,"viability, T/C",[9],102%
same,"viability, T/C",[10],98.9%
same,"viability, T/C",[11],78.4%
same,"viability, T/C",[12],61.4%
same,"viability, T/C",[25],42.2%
same,"viability, T/C",[26],28.1%
same,"viability, T/C",[13],85.8%
same,"viability, T/C",[14],82.6%
same,"viability, T/C",[15],78.6%
same,"viability, T/C",[16],52.9%
same,"viability, T/C",[27],36%
same,"viability, T/C",[28],24.3%
same,"viability, T/C",[17],68%
same,"viability, T/C",[18],77.1%
same,"viability, T/C",[19],68.9%
same,"viability, T/C",[20],49.9%
same,"viability, T/C",[29],31.9%
same,"viability, T/C",[30],23.2%
Nc1ncn(C2CC(O)C(CO)S2)c(=O)n1 (stereo not given) + CC(CO)NC(=O)c1cc(-c2ccc(Cl)cc2)nn(-c2cnn(C)c2)c1=O,IC50,second compound 0.1 µM,> 0.3 µM
same,IC50,second compound 0.316 µM,> 0.3 µM
same,IC50,second compound 1 µM,> 0.3 µM
same,IC50,second compound 3.16 µM,> 0.3 µM
same,IC50,second compound 10 µM,> 0.3 µM
same,"viability, T/C","second compound 0.1 µM, first compound 0.000949 µM",94.1%
same,"viability, T/C","second compound 0.1 µM, first compound 0.003 µM",94%
same,"viability, T/C",[31],98.8%
same,"viability, T/C",[32],91%
same,"viability, T/C",[33],88.9%
same,"viability, T/C",[34],73.5%
same,"viability, T/C","second compound 0.316 µM, first compound 0.000949 µM",92.3%
same,"viability, T/C","second compound 0.316 µM, first compound 0.003 µM",95%
same,"viability, T/C",[35],96.3%
same,"viability, T/C",[36],92.6%
same,"viability, T/C",[37],82.7%
same,"viability, T/C",[38],77.7%
same,"viability, T/C","second compound 1 µM, first compound 0.000949 µM",97.7%
same,"viability, T/C","second compound 1 µM, first compound 0.003 µM",103%
same,"viability, T/C",[39],102%
same,"viability, T/C",[40],91.8%
same,"viability, T/C",[41],87.8%
same,"viability, T/C",[42],80.7%
same,"viability, T/C","second compound 3.16 µM, first compound 0.000949 µM",90.7%
same,"viability, T/C","second compound 3.16 µM, first compound 0.003 µM",88.3%
same,"viability, T/C",[43],89.4%
same,"viability, T/C",[44],83.2%
same,"viability, T/C",[45],82.7%
same,"viability, T/C",[46],72.2%
same,"viability, T/C","second compound 10 µM, first compound 0.000949 µM",71.9%
same,"viability, T/C","second compound 10 µM, first compound 0.003 µM",67.7%
same,"viability, T/C",[47],67.6%
same,"viability, T/C",[48],67.4%
same,"viability, T/C",[49],61.9%
same,"viability, T/C",[50],60.5%
O=C(C=Cn1cnc(-c2cc(C(F)(F)F)cc(C(F)(F)F)c2)n1)NNc1cnccn1 + CC(CO)NC(=O)c1cc(-c2ccc(Cl)cc2)nn(-c2cnn(C)c2)c1=O,IC50,second compound 0.1 µM,0.0881 µM
same,IC50,second compound 0.316 µM,0.106 µM
same,IC50,second compound 1 µM,0.0977 µM
same,IC50,second compound 3.16 µM,0.0802 µM
same,IC50,second compound 10 µM,0.0498 µM
same,"viability, T/C",[31],85.4%
same,"viability, T/C",[32],91%
same,"viability, T/C",[33],47%
same,"viability, T/C",[34],31.1%
same,"viability, T/C","second compound 0.1 µM, first compound 0.949 µM",22.5%
same,"viability, T/C","second compound 0.1 µM, first compound 3 µM",13.4%
same,"viability, T/C",[35],84.6%
same,"viability, T/C",[36],75.5%
same,"viability, T/C",[37],49.8%
same,"viability, T/C",[38],32%
same,"viability, T/C","second compound 0.316 µM, first compound 0.949 µM",20.2%
same,"viability, T/C","second compound 0.316 µM, first compound 3 µM",13.2%
same,"viability, T/C",[39],93.6%
same,"viability, T/C",[40],76.5%
same,"viability, T/C",[41],50.5%
same,"viability, T/C",[42],28.9%
same,"viability, T/C","second compound 1 µM, first compound 0.949 µM",19.1%
same,"viability, T/C","second compound 1 µM, first compound 3 µM",14.3%
same,"viability, T/C",[43],84.5%
same,"viability, T/C",[44],67.8%
same,"viability, T/C",[45],47%
same,"viability, T/C",[46],29.6%
same,"viability, T/C","second compound 3.16 µM, first compound 0.949 µM",17.7%
same,"viability, T/C","second compound 3.16 µM, first compound 3 µM",14.7%
same,"viability, T/C",[47],66.2%
same,"viability, T/C",[48],58.9%
same,"viability, T/C",[49],39.1%
same,"viability, T/C",[50],22.4%
same,"viability, T/C","second compound 10 µM, first compound 0.949 µM",18.5%
same,"viability, T/C","second compound 10 µM, first compound 3 µM",13.2%
